Results: EP0149197B2, “Pharmaceutical compositions containing drugs which are sparingly soluble in water or instable and methods for their preparation” (priority 1983, dated 1985)
Converted amounts (≈) assume the structure as drawn. Read-outs that look alike come from different tables or passages of the source. Marks after values point to notes of the source that are not given here.

Assays:
[1] = Saturation solubility with and without 4 % hydroxypropyl-methyl-β-cyclodextrin (DS 0,96; MS 0,43); type: physicochemical
From the text: B. In ähnlicher Weise wurde die Löslichkeit von Arzneistoffen in einer 4 %-igen wässrigen Lösung von Hydroxypropyl-methyl-β-cyclodextrin (DS = 0,96; MS = 0,43) untersucht. Die erhaltenen Ergebnisse sind in der nachfolgenden Tabelle 2 zusammengefaßt, wobei für jeden Arzneistoff das Verhältnis R von Sättigungslöslichkeit in Wasser bzw. beim angegebenen pH-Wert mit und ohne Zusatz des β-Cyclodextrinderivats angegeben ist.

[2] = Saturation solubility in phosphate buffer with and without 10 % hydroxypropyl-β-cyclodextrin (MS 0.35); conditions: for Verh.S1 zu S2: given as 1: x; for solubility thermodynamic at 24 h: phosphate buffer
Procedure: A. Unter Verwendung einer 10 %-igen Hydroxypropyl-β-cyclodextrinlösung (MS 0.35) in Phosphatpufferlösung wurde unter denselben Bedingungen wie in Beispiel 1 die Sättigungslöslichkeit bei 25°C für verschiedene Arzneistoffe bestimmt. In Tabelle 1 sind die Sättigungslöslichkeit S1 in Phosphatpufferlösung und S2 in Phosphatpufferlösung unter Zusatz von 10 % Hydroxypropyl-β-cyclodextrin angegeben. Tabelle 1

[3] = with the 2,6-Di-O-methylderivat of β-cyclodextrin; cited from earlier work
[4] = Storage stability of indometacin solutions at 21°C, HPLC content; type: physicochemical; conditions: aqueous buffer; concentration of the saturated solution in phosphate buffer (solution A); read-out: gesättigte Lösung in Phosphatpufferlösung
Procedure: In 10 ml Phosphatpufferlösung wurden bei 25°C 0,7 g Hydroxyethyl-β-cyclodextrin (MS 0.43) und 0,04 g Indometacin bis zur klaren Lösung eingearbeitet. Diese wurde durch ein Membranfilter (0,22 µm) filtriert und unter Laminarflow in eine vorsterilisierte Injektionsflasche abgefüllt, die bei 21°C eingelagert wurde (B). Parallel dazu wurde eine gesättigte Indometaeinlösung in Phosphatpufferlösung (0,21 mg/ml) unter gleichen Bedingungen aufbewahrt (A). Die hochdruckflüssigkeitschromatographisch ermittelten Wirkstoff-Konzentrationen sind in Tabelle 3 wiedergegeben. Die wesentlich verbesserte Stabilität des erfindungsgemäßen Präparates ist offensichtlich. Tabelle 3

[5] = Dissolution rate of medroxyprogesterone acetate from tablets; type: physicochemical; conditions: tablet with Hydroxyethyl-β-cyclodextrin (MS 0.43) versus same tablet excipients without β-cyclodextrin ether
Procedure: In 100 ml Wasser wurden 7 g Hydroxyethyl-β-cyclodextrin (MS 0.43) sowie 0,5 g Medroxyprogesteronacetat gelöst. Anschließend wurde das Wasser auf einem Rotationsverdampfer abgezogen. Der Rückstand […] wurde pulverisiert und mit 366 mg Calcium-hydrogenphosphat. 2H2O, 60 mg Maisstärke, 120 mg Cellulosepulver(mikrokristallin), 4,2 mg hochdisperse Kieselsäure (Aerosil® 200) und 4,8 mg Magnesiumstearat zu Tabletten mit einem Endgewicht von 630,0 mg und pro Einzeldosis 5 mg Wirkstoff verarbeitet. Die Lösungsgeschwindigkeit des Medroxyprogesteronacetats aus dieser Zubereitung ist etwa 21 mal höher als bei Einsatz der gleichen Tablettenhilfsstoffe ohne Zusatz des β-Cyclodextrinethers.

[6] = in water; cited from earlier work
[7] = Acute intravenous toxicity in rats; type: in vivo, Ratten; conditions: rat, in vivo, iv
From the text: (§1) Die akute intravenöse Toxizität von einigen β-Cyclodextrinen wurde an Ratten untersucht, wobei die nachfolgenden Ergebnisse erhalten wurden. Dabei zeigte sich, daß die Toxizität der erfindungsgemäß eingesetzten Derivate überraschend eine ganze Größenordnung niedriger ist. Tabelle 5

[8] = tested on: roten Blutkörperchen (menschlichen Ursprungs); type: cell-based; conditions: human, 30 min
Procedure: In einer weiteren Versuchsreihe wurde die hämolytische Wirkung der Methylether gemäß DE-A-3 118 218 mit derjenigen eines erfindungsgemäß verwendeten Ethers verglichen. Dazu wurden 100 µl einer physiologischen Kochsalzlösung mit einem Cyclodextringehalt von 10 %, 800 µl eines Puffers (400 mg MOPS, 36 mg Na2HPO4·2 H2O, 1,6 g NaCl in 200 ml H2O) und 100 µl einer Suspension von roten Blutkörperchen (menschlichen Ursprungs, dreimal mit Kochsalzlösung gewaschen), 30 Min. lang bei 37°C gemischt. Anschließend wurde zentrifugiert und die Extinktion bei 540 mn bestimmt.
Kontrollen: • a) 100 µl Kochsalzlösung + Puffer → 0 % Hämolyse • b) 900 µl Wasser → 100 % Hämolyse
Die gefundenen Ergebnisse sind in der nachfolgenden Tabelle 6 zusammengefaßt, wobei die Konzentrationen angegeben sind, bei denen eine 50 %-ige bzw. eine 100 % Hämolyse stattfand. Tabelle 6

Ratten = assay: Acute intravenous toxicity in rats; type: in vivo; conditions: rat, i.v.
From the text: as §1

[9] = phosphate buffer, pH 6.6
From the text: Die in den Beispielen genannte Phosphatpuffer-Lösung hatte einen pH-Wert von 6.6 und folgende Zusammensetzung:

[10] = in water, 4 % Hydroxypropyl-methyl-β-cyclodextrin

Compound: COc1cc(N)c(Cl)cc1C(=O)NC1CCN(CCCOc2ccc(F)cc2)CC1OC (stereo not drawn) [Cisaprid]
- Verhältnis R von Sättigungslöslichkeit mit und ohne Zusatz des β-Cyclodextrinderivats [1]: 3

Compound: C[C@@H]1C[C@H]2[C@@H]3CCC4=CC(=O)C=C[C@]4(C)[C@@]3(F)[C@@H](O)C[C@]2(C)[C@@]1(O)C(=O)CO [Dexamethason]
- Verh.S1 zu S2 [2]: 172,0
- solubility thermodynamic at 24 h ([2]; 10% hp-beta-cd, pH 6.6): 14300 µg/mL (≈ 36400 µM)
- solubility thermodynamic at 24 h ([2]; pH 6.6, aqueous buffer): 83 µg/mL (≈ 211 µM)

Compound: CN1C(=O)CN=C(c2ccccc2)c2cc(Cl)ccc21 [Diazepam]
- Verh.S1 zu S2 [2]: 29,4

Compound: C[C@H]1O[C@@H](O[C@H]2[C@@H](O)C[C@H](O[C@H]3[C@@H](O)C[C@H](O[C@H]4CC[C@@]5(C)[C@H](CC[C@@H]6[C@@H]5CC[C@]5(C)[C@@H](C7=CC(=O)OC7)CC[C@]65O)C4)O[C@@H]3C)O[C@@H]2C)C[C@H](O)[C@@H]1O [Digitoxin]
- Steigerung der Löslichkeit in Wasser [3]: 81,6 -fache

Compound: CCOC(=O)c1cncn1[C@H](C)c1ccccc1 [Etomidat]
- Verhältnis R von Sättigungslöslichkeit mit und ohne Zusatz des β-Cyclodextrinderivats [1, 10]: 8,5

Compound: COC(=O)Nc1nc2cc(C(=O)c3ccc(F)cc3)ccc2[nH]1 [Flubendazol]
- Verhältnis R von Sättigungslöslichkeit mit und ohne Zusatz des β-Cyclodextrinderivats [1, 10]: 30

Compound: Fc1ccc(C(c2ccc(F)cc2)N2CCN(C/C=C/c3ccccc3)CC2)cc1 [Flunarizin]
- Verhältnis R von Sättigungslöslichkeit mit und ohne Zusatz des β-Cyclodextrinderivats [1, 10]: 18

Compound: COc1ccc2c(c1)c(CC(=O)O)c(C)n2C(=O)c1ccc(Cl)cc1 [Indometacin]
- solubility [4]: 210 µg/mL (≈ 587 µM)
- Verh.S1 zu S2 [2]: 30,1
- solubility thermodynamic at 24 h ([2]; 10% hp-beta-cd, pH 6.6): 5720 µg/mL (≈ 16000 µM)
- solubility thermodynamic at 24 h ([2]; pH 6.6, aqueous buffer): 190 µg/mL (≈ 531 µM)

Compound: CCC(C)n1ncn(-c2ccc(N3CCN(c4ccc(OCC5COC(Cn6cncn6)(c6ccc(Cl)cc6Cl)O5)cc4)CC3)cc2)c1=O (stereo not drawn) [Itraconazol]
- Verhältnis R von Sättigungslöslichkeit mit und ohne Zusatz des β-Cyclodextrinderivats ([1]; pH 2): 75
- Verhältnis R von Sättigungslöslichkeit mit und ohne Zusatz des β-Cyclodextrinderivats ([1]; pH 5): 96

Compound: CC(=O)N1CCN(c2ccc(OCC3COC(Cn4ccnc4)(c4ccc(Cl)cc4Cl)O3)cc2)CC1 (stereo not drawn) [Ketoconazol]
- Verhältnis R von Sättigungslöslichkeit mit und ohne Zusatz des β-Cyclodextrinderivats [1]: 85

Compound: CN(C)C(=O)C(CCN1CCC(O)(c2ccc(Cl)cc2)CC1)(c1ccccc1)c1ccccc1 [Loperamid]
- Verhältnis R von Sättigungslöslichkeit mit und ohne Zusatz des β-Cyclodextrinderivats [1, 10]: 62

Compound: CC(=O)OC1(C(C)=O)CCC2C3CC(C)C4=CC(=O)CCC4(C)C3CCC21C (stereo not drawn) [Medroxyprogesteronacetat]
- Lösungsgeschwindigkeit [5]: ~21 mal höher

Compound: CC(=O)[C@H]1CC[C@H]2[C@@H]3CCC4=CC(=O)CC[C@]4(C)[C@H]3CC[C@]12C [Progesteron]
- Verh.S1 zu S2 [2]: 1083,0
- solubility thermodynamic at 24 h ([2]; 10% hp-beta-cd, pH 6.6): 7690 µg/mL (≈ 24500 µM)
- solubility thermodynamic at 24 h ([2]; pH 6.6, aqueous buffer): 7.1 µg/mL (≈ 22.6 µM)

Compound: OC[C@H]1O[C@@H]2O[C@H]3[C@H](O)[C@@H](O)[C@@H](O[C@H]4[C@H](O)[C@@H](O)[C@@H](O[C@H]5[C@H](O)[C@@H](O)[C@@H](O[C@H]6[C@H](O)[C@@H](O)[C@@H](O[C@H]7[C@H](O)[C@@H](O)[C@@H](O[C@H]8[C@H](O)[C@@H](O)[C@@H](O[C@H]1[C@H](O)[C@H]2O)O[C@@H]8CO)O[C@@H]7CO)O[C@@H]6CO)O[C@@H]5CO)O[C@@H]4CO)O[C@@H]3CO [β-Cyclodextrin]
- Wasserlöslichkeit [6]: 1,8 g pro 100 ml
- LD50 [7]: 453 mg/kg

Compound: Dimethyl-β-cyclodextrin [Dimethyl-β-cyclodextrin (DS = 2,0)]
- C50 % (Konzentration, bei der eine 50 %-ige Hämolyse stattfand) [8]: 0,33%
- C100 % (Konzentration, bei der eine 100 % Hämolyse stattfand) [8]: 0,5%
- LD50 bei Ratten (i.v.) (Ratten): 200 - 207 mg/kg Körpergewicht

Compound: Hydroxyethyl-β-cyclodextrin [Hydroxyethyl-β-cyclodextrin (MS 0.43)]
- Sättigungslöslichkeit des Cyclodextrinderivates im Puffer [9]: 7,2 g/100 ml

Compound: Hydroxypropyl-methyl-β-cyclodextrin
- C50 % (Konzentration, bei der eine 50 %-ige Hämolyse stattfand) [8]: 1,5%
- C100 % (Konzentration, bei der eine 100 % Hämolyse stattfand) [8]: 4%
- hämolytische Wirkung [8]: 5 bis 8 mal geringer
- LD50 bei Ratten (i.v.) (Ratten): > 2000* mg/kg Körpergewicht

Compound: Levocabastin
- Verhältnis R von Sättigungslöslichkeit mit und ohne Zusatz des β-Cyclodextrinderivats ([1]; pH 7,4, 4 % Hydroxypropyl-methyl-β-cyclodextrin): 8
- Verhältnis R von Sättigungslöslichkeit mit und ohne Zusatz des β-Cyclodextrinderivats ([1]; pH 9,5, 4 % Hydroxypropyl-methyl-β-cyclodextrin): 81

Compound: Methyl-β-CD [Methyl-β-CD (DS = 1,79)]
- C50 % (Konzentration, bei der eine 50 %-ige Hämolyse stattfand) [8]: 0,53%
- C100 % (Konzentration, bei der eine 100 % Hämolyse stattfand) [8]: 0,8%

Compound: Tubulazol
- Verhältnis R von Sättigungslöslichkeit mit und ohne Zusatz des β-Cyclodextrinderivats [1, 10]: 43
